Measurements reported in patent publication US20100331282A1, “PYRIDINE DERIVATIVE CONTAINING ((PHOSPHONOOXY)METHYL)PYRIDINIUM RING, AND ANTIFUNGAL AGENT CONTAINING THESE DERIVATIVE” (priority 2009, published 2010).
In brackets after ≈: the same amount, converted by molar mass.

Tests used:
[1] = Comparative test of solubility in water (Britton-Robinson buffer); format: physicochemical; settings: aqueous buffer, Britton-Robinson buffer (ion strength of 0.3) at 25° C.
Description: 3-(3-(4-(Pyridin-2-ylmethoxy)-benzyl)-isoxazol-5-yl)-pyridin-2-ylamine described in Reference Example 1, which is the parent compound, and the compound of Example 1 were compared for solubility in a Britton-Robinson buffer (ion strength of 0.3) at 25° C.

[2] = test system: C. albicans CAF2-1 strain; assay: Anti-Candida activity (MIC measurement); format: cell-based; settings: CAF21STRAIN, RPMI1640 medium, 42-48 hours at 35° C., visual inspection, read-out: Anti-Candida (minimum inhibitory concentration, MIC)
Description: (§1) For the C. albicans CAF2-1 strain, a fungal suspension from a standing culture for 48 hours at 30° C. in a Sabouraud dextrose liquid culture medium (SDB) was diluted with RPMI1640 medium to adjust a fungal suspension of 1.2×10^3 cells/mL. For the A. fumigatus Tsukuba strain, −80° C. stored strain was diluted with RPMI1640 medium to adjust to a fungal suspension of 4.5×10^3 cells/mL.
(§2) Using a U-bottomed 96 well plate, 8 samples/plate (A to H) of sample dilution solutions were prepared. On the 2nd to 12th rows were dispensed 10 μl of dimethyl sulfoxide solution. Weighted sample was dissolved in dimethyl sulfoxide to prepare a 2.5 mg/mL solution, 20 μl of this solution was added to the first row of the prepared plate, and 12 steps of two-folded step dilutions (10 μl of solution+10 μl of dimethyl sulfoxide solution) were performed on the plate. This sample dilution solution was dispensed in the amount of 1 μl to a flat-bottomed 96 well plate for MIC measurement to prepare a sample dilution plate.
(§3) The fungal suspension prepared in (1) was used in the amount of […] to inoculate the flat-bottomed 96 well plate containing 1 μL/well of the test compound dilution prepared in (2), and a standing culture was carried out aerobically for 42-48 hours at 35° C.

[3] = test system: A. fumigatus Tsukuba strain; assay: Anti-Aspergillus activity (MIC measurement); format: cell-based; settings: RPMI1640 medium, 42-48 hours at 35° C., visual inspection, read-out: Anti-Aspergillus activity (minimum inhibitory concentration, MIC)
Description: as §1, §2, §3

[4] = Conversion into parent compound (active form) in human liver S9 fraction; format: in vitro ADME; settings: human liver S9 reaction solution, 0.2 mg/mL protein, 10 μmol/L compound, pH 7.4, 37° C., 0, 30, 60 minutes, LC-MS (FIG. 1)
Description: (§4) A suspension (pH of 7.4) containing human and monkey liver S9 fractions (with a protein concentration of 0.22 mg/mL), 0.5 mmol/L magnesium chloride, and 100 mmol/L tris-HCl was prepared over ice (various reaction solutions A). 30 μL of a 100 μmol/mL aqueous solution of the compound according to the present invention (the compound of Example 1) was added to the various reaction solutions A (for a final compound concentration of 10 μmol/L) to obtain various liver S9 reaction solutions (with a final protein concentration of 0.2 mg/mL), and these were stored on ice until (2) was carried out. A control sample was prepared (reaction buffer solution) by adding 30 μL of a […] aqueous solution of the compound according to the present invention (the compound of Example 1) to 0.27 mL of a buffer (pH of 7.4) containing 0.5 mmol/L magnesium chloride and 100 mmol/L tris-HCl. […]
(§5) (3) The Concentrations of the Compound According to the Present Invention (the Compound of Example 1) and the Parent Compound (the Compound of Reference Example 1) in the Reaction Solution were Quantified by LC-MS.
(§6) The concentrations of the compound according to the present invention (the compound of Example 1) and the parent compound (the compound of Reference Example 1) in the reaction solution were measured by the method described in 2. above. […]

[5] = Conversion into parent compound (active form) in monkey liver S9 fraction; format: in vitro ADME; settings: monkey liver S9 reaction solution, 0.2 mg/mL protein, 10 μmol/L compound, pH 7.4, 37° C., 0, 30, 60 minutes, LC-MS (FIG. 2)
Description: as §4, §5, §6

| Compound | solubility ([1]; pH 3) [µg/mL] | solubility ([1]; pH 7) [µg/mL] | solubility ([1]; pH 9) [µg/mL] | MIC [2] [µg/mL] | MIC [3] [µg/mL] | Conversion into the parent compound (compound of Reference Example 1) [4] | Conversion into the parent compound (compound of Reference Example 1) [5] |
| --- | --- | --- | --- | --- | --- | --- | --- |
| Nc1ncccc1-c1cc(Cc2ccc(OCc3ccccn3)cc2)no1 [Reference Example 1, 3-(3-(4-(Pyridin-2-ylmethoxy)-benzyl)-isoxazol-5-yl)-pyridin-2-ylamine] | 400 (≈ 1120 µM) | < 100 | < 100 | 0.2 (≈ 0.558 µM) | 0.39 (≈ 1.09 µM) | – | – |
| Nc1ncccc1-c1cc(Cc2ccc(OCc3cccc[n+]3COP(=O)([O-])O)cc2)no1 [Example 1, 2-((4-((5-(2-Amino-3-pyridinyl)-3-isoxazolyl)methyl)phenoxy)methyl)-1-((phosphonooxy)methyl)pyridinium mono-trifluoroacetate] | > 70000 | > 70000 | > 70000 | – | – | converted into the parent compound | converted into the parent compound |
